Experimental data reported in the kinase profiling compilation of Christmann-Franck et al. (2016).

Experiments:
Test in all cases: KINOMEscan competition binding
MAPK8 (human) = MAPK8 (human) (UniProt P45983)
NTRK1 (human) = NTRK1 (human) (UniProt P04629); settings: compound 10.0 µM
IRAK1 (human) = IRAK1 (human) (UniProt P51617); settings: compound 10.0 µM
RIPK2 (human) = RIPK2 (human) (UniProt O43353); settings: compound 10.0 µM
[1] = tested on: EGFR (human), P00533 [G719S]; settings: compound 10.0 µM
RIOK1 (human) = RIOK1 (human) (UniProt Q9BRS2); settings: compound 10.0 µM
MAPK1 (human) = MAPK1 (human) (UniProt P28482); settings: compound 10.0 µM
CDKL5 (human) = CDKL5 (human) (UniProt O76039); settings: compound 10.0 µM
PRPF4B (human) = PRPF4B (human) (UniProt Q13523); settings: compound 10.0 µM
RPS6KA1 KD2 (human) = RPS6KA1 KD2 (human) (UniProt Q15418); settings: compound 10.0 µM
INSRR (human) = INSRR (human) (UniProt P14616); settings: compound 10.0 µM
MARK3 (human) = MARK3 (human) (UniProt P27448); settings: compound 10.0 µM
ERN1 (human) = ERN1 (human) (UniProt O75460); settings: compound 10.0 µM
STK32A (human) = STK32A (human) (UniProt Q8WU08); settings: compound 10.0 µM
PHKG2 (human) = PHKG2 (human) (UniProt P15735); settings: compound 10.0 µM
GRK1 (human) = GRK1 (human) (UniProt Q15835); settings: compound 10.0 µM
FGR (human) = FGR (human) (UniProt P09769); settings: compound 10.0 µM
PAK7 (human) = PAK7 (human) (UniProt Q9P286); settings: compound 10.0 µM
MAPKAPK2 (human) = MAPKAPK2 (human) (UniProt P49137); settings: compound 10.0 µM
NEK11 (human) = NEK11 (human) (UniProt Q8NG66); settings: compound 10.0 µM
RIPK1 (human) = RIPK1 (human) (UniProt Q13546); settings: compound 10.0 µM
CDK14 (human) = CDK14 (human) (UniProt O94921); settings: compound 10.0 µM
[2] = tested on: EGFR (human), P00533 [T790M]; settings: compound 10.0 µM
[3] = tested on: PIK3CA (human), P42336 [H1047L]; settings: compound 10.0 µM
NLK (human) = NLK (human) (UniProt Q9UBE8); settings: compound 10.0 µM
[4] = tested on: PIK3CA (human), P42336 [E545A]; settings: compound 10.0 µM
[5] = tested on: FLT3 (human), P36888 [N841I]; settings: compound 10.0 µM
FLT3 (human) = FLT3 (human) (UniProt P36888); settings: compound 10.0 µM
DSTYK (human) = DSTYK (human) (UniProt Q6XUX3); settings: compound 10.0 µM
EPHB3 (human) = EPHB3 (human) (UniProt P54753); settings: compound 10.0 µM
PIK3CA (human) = PIK3CA (human) (UniProt P42336); settings: compound 10.0 µM
MYLK2 (human) = MYLK2 (human) (UniProt Q9H1R3); settings: compound 10.0 µM
CSF1R (human) = CSF1R (human) (UniProt P07333); settings: compound 10.0 µM
[6] = tested on: EGFR (human), P00533 [P753S; 747-752 del]; settings: compound 10.0 µM
EPHA3 (human) = EPHA3 (human) (UniProt P29320); settings: compound 10.0 µM
TGFBR2 (human) = TGFBR2 (human) (UniProt P37173); settings: compound 10.0 µM
PRKD1 (human) = PRKD1 (human) (UniProt Q15139); settings: compound 10.0 µM
CIT (human) = CIT (human) (UniProt O14578); settings: compound 10.0 µM
[7] = tested on: RET (human), P07949 [M918T]; settings: compound 10.0 µM
CLK4 (human) = CLK4 (human) (UniProt Q9HAZ1); settings: compound 10.0 µM
ACVR2A (human) = ACVR2A (human) (UniProt P27037); settings: compound 10.0 µM
GAK (human) = GAK (human) (UniProt O14976); settings: compound 10.0 µM

MAPK8 (human), sequence (P45983 whole entry, looked up): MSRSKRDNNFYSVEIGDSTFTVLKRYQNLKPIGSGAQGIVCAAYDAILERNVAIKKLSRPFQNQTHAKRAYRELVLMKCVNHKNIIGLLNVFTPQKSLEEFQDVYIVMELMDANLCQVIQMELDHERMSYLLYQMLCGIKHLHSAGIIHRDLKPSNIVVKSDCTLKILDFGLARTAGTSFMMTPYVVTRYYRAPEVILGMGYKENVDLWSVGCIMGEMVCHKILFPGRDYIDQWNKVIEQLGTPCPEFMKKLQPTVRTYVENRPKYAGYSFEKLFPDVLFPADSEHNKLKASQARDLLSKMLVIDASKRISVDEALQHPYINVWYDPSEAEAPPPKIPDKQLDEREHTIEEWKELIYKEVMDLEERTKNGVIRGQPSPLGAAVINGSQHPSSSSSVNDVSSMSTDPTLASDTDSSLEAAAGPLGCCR
CIT (human), sequence (O14578 whole entry, looked up): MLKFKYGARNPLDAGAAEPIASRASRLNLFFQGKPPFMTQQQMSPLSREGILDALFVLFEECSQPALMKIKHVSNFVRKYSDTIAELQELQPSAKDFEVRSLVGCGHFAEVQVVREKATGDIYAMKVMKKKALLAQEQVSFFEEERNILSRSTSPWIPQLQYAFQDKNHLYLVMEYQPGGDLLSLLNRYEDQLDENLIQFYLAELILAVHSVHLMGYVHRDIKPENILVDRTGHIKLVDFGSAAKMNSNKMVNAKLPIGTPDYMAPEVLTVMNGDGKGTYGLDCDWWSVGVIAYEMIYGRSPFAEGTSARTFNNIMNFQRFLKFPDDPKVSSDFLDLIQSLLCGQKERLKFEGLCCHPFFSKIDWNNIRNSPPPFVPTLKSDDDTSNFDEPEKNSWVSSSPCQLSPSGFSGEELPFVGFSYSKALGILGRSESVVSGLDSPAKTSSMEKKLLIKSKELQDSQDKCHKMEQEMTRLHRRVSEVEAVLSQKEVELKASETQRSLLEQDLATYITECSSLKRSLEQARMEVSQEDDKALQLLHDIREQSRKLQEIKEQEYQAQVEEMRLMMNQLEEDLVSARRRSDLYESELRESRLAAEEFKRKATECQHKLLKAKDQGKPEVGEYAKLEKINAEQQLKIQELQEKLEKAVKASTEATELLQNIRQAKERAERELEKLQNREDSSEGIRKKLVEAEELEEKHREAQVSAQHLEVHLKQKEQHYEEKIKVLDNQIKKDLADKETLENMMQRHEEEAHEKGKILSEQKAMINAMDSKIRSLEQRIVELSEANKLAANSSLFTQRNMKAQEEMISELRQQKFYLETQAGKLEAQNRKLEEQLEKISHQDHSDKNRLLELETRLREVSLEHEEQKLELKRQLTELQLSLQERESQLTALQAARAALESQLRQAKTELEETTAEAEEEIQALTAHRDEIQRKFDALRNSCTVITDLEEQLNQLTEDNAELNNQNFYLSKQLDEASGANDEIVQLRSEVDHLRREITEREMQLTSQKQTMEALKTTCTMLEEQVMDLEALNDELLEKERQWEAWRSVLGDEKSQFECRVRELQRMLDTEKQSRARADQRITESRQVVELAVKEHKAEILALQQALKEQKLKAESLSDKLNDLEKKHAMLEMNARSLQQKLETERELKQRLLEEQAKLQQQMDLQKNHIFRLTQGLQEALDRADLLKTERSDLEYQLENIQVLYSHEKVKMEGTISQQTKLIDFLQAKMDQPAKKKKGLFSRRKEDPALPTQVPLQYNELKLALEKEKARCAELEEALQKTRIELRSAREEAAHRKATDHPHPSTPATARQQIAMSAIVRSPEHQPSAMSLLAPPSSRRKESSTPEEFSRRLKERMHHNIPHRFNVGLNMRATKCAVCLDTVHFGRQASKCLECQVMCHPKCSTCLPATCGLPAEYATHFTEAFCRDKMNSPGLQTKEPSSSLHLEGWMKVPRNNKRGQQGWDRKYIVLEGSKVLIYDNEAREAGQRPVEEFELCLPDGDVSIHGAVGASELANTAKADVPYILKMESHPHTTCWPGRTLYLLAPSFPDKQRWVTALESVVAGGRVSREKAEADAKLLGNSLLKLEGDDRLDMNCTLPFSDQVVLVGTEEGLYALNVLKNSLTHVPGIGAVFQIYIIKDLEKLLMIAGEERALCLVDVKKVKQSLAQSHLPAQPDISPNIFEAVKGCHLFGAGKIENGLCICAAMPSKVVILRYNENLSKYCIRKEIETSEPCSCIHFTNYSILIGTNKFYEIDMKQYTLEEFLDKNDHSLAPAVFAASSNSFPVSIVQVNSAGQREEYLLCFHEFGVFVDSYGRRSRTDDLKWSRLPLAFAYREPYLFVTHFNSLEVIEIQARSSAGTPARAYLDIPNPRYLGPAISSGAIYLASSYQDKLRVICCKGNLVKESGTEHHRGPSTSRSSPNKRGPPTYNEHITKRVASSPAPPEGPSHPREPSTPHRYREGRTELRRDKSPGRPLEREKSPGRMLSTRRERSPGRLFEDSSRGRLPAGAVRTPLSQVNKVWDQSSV
CDK14 (human), sequence (O94921 whole entry, looked up): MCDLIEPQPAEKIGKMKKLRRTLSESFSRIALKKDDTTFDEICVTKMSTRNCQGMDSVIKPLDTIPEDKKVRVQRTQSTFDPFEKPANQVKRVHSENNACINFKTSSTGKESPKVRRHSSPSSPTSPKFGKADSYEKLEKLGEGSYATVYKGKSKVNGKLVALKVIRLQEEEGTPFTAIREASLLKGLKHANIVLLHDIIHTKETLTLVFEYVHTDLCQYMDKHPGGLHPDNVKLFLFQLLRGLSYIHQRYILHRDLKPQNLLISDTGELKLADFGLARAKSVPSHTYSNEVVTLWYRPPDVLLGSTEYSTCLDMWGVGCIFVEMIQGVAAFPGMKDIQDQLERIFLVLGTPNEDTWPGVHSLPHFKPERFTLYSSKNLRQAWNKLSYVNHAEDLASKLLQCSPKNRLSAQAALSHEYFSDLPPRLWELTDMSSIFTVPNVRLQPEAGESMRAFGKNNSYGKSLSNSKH
MYLK2 (human), sequence (Q9H1R3 whole entry, looked up): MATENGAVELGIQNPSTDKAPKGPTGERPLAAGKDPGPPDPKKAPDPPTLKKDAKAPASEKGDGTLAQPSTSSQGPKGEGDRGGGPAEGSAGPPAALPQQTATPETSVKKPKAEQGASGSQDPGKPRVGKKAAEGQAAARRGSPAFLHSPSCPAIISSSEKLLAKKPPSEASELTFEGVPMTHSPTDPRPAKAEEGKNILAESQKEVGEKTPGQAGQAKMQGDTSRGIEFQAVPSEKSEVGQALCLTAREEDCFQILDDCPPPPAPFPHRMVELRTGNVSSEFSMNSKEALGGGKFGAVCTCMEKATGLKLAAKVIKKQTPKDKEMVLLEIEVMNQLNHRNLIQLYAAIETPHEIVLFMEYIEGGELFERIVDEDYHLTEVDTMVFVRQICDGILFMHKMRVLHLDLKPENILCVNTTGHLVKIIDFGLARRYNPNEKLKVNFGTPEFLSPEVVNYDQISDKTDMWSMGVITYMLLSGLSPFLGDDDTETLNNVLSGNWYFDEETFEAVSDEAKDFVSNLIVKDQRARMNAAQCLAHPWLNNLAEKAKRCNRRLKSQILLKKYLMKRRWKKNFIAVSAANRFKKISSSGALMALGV
PAK7 (human), sequence (Q9P286 whole entry, looked up): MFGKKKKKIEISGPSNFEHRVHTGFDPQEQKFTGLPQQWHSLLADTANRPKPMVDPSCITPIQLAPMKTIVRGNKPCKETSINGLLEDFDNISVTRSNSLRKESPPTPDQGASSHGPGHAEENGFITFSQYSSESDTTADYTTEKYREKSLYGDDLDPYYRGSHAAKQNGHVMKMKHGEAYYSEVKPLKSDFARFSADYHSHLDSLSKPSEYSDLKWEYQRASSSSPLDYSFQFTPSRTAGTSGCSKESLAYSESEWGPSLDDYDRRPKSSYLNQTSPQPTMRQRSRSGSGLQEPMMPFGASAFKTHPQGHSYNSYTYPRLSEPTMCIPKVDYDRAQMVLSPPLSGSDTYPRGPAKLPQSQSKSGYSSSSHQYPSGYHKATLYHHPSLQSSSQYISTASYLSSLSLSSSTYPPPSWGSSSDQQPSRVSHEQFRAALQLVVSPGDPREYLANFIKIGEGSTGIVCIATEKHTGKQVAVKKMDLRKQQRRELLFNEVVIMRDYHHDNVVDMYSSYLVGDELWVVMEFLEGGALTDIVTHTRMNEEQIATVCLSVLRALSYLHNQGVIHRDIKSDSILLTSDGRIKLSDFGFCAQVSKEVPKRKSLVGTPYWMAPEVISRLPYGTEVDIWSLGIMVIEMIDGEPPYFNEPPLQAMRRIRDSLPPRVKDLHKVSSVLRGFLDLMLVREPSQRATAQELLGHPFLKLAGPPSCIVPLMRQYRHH
CLK4 (human), sequence (Q9HAZ1 whole entry, looked up): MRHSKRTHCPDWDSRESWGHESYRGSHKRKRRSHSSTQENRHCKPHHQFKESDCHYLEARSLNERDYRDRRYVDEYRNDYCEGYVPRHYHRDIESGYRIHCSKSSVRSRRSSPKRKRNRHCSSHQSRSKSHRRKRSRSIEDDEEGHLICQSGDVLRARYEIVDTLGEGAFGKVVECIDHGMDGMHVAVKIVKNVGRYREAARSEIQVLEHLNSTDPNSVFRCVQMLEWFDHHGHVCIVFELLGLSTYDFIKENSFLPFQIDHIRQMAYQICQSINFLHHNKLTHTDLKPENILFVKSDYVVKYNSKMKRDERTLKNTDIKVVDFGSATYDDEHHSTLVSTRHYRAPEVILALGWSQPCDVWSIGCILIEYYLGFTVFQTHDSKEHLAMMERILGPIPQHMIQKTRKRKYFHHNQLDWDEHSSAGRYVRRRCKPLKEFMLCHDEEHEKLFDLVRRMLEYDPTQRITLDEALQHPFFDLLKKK

Cc1ccc(NC(=O)c2ccc(NC(=O)/C=C/CN(C)C)cc2)cc1Nc1nccc(-c2cccnc2)n1
Kd (MAPK8 (human)): 290 nM
kinase still bound, per cent of control (MAPK8 (human); compound 10.0 µM): 0%
kinase still bound, per cent of control (NTRK1 (human)): 95%
kinase still bound, per cent of control (IRAK1 (human)): 13%
kinase still bound, per cent of control (RIPK2 (human)): 67%
kinase still bound, per cent of control [1]: 61%
kinase still bound, per cent of control (RIOK1 (human)): 34%
kinase still bound, per cent of control (MAPK1 (human)): 82%
kinase still bound, per cent of control (CDKL5 (human)): 100%
kinase still bound, per cent of control (PRPF4B (human)): 100%
kinase still bound, per cent of control (RPS6KA1 KD2 (human)): 77%
kinase still bound, per cent of control (INSRR (human)): 100%
kinase still bound, per cent of control (MARK3 (human)): 100%
kinase still bound, per cent of control (ERN1 (human)): 98%
kinase still bound, per cent of control (STK32A (human)): 50%
kinase still bound, per cent of control (PHKG2 (human)): 86%
kinase still bound, per cent of control (GRK1 (human)): 100%
kinase still bound, per cent of control (FGR (human)): 80%
kinase still bound, per cent of control (PAK7 (human)): 72%
kinase still bound, per cent of control (MAPKAPK2 (human)): 100%
kinase still bound, per cent of control (NEK11 (human)): 78%
kinase still bound, per cent of control (RIPK1 (human)): 56%
kinase still bound, per cent of control (CDK14 (human)): 100%
kinase still bound, per cent of control [2]: 92%
kinase still bound, per cent of control [3]: 89%
kinase still bound, per cent of control (NLK (human)): 100%
kinase still bound, per cent of control [4]: 100%
kinase still bound, per cent of control [5]: 92%
kinase still bound, per cent of control (FLT3 (human)): 75%
kinase still bound, per cent of control (DSTYK (human)): 81%
kinase still bound, per cent of control (EPHB3 (human)): 100%
kinase still bound, per cent of control (PIK3CA (human)): 100%
kinase still bound, per cent of control (MYLK2 (human)): 68%
kinase still bound, per cent of control (CSF1R (human)): 9.2%
kinase still bound, per cent of control [6]: 56%
kinase still bound, per cent of control (EPHA3 (human)): 83%
kinase still bound, per cent of control (TGFBR2 (human)): 100%
kinase still bound, per cent of control (PRKD1 (human)): 100%
kinase still bound, per cent of control (CIT (human)): 59%
kinase still bound, per cent of control [7]: 81%
kinase still bound, per cent of control (CLK4 (human)): 6.2%
kinase still bound, per cent of control (ACVR2A (human)): 82%
kinase still bound, per cent of control (GAK (human)): 8.6%
